# Earlier results as cited in patent US20250387497A1, “MULTIVALENT MULTISPECIFIC CONJUGATES AND RELATED COMPOSITIONS AND METHODS OF USE” (Purdue Research Foundation, priority 2022, published 2025).
# pKd: −log10 of the molar value.
# Tests used:
# Her2 = Her2 (Homo sapiens, UniProt P04626); settings: read-out: binding affinity for Her2
# EGFR = EGFR (Homo sapiens, UniProt P00533); settings: read-out: binding affinity for EGFR
Sequence,pKd (Her2),pKd (EGFR)
FCGDGFYACYMDV [H],6.52,–
YHWYGYTPQNVI [E],–,3.34
